Results reported in patent US20170215470A1, “USE OF A COMPOSITION CONTAINING A LONG-CHAIN POLYOL AS A BASE FOR E-LIQUIDS” (LABORATOIRES CERES, priority 2014, published 2017).
Like-named read-outs stand apart in the source and are kept apart here.

Experiment: Thermal stability by thermogravimetric (TGA) and thermal differential analysis (TDA)
Type: physicochemical
Procedure: The thermogravimetric analysis is a method of thermal analysis in which the changes of the physical and chemical properties of the materials are measured as a function of the temperature. The TGA can supply information about the physical phenomena such as the vaporization or the combustion. Also, it is possible to obtain information about the chemical phenomena such as the dehydration or the decomposition. In the thermal differential analysis (TDA) the study material and an inert reference undergo identical thermic cycles. During the analysis the temperature difference between the sample and the reference is recorded. These temperature differences followed as a function of the rime relative to the inert reference inform us about the thermal phenomena undergone by the sample, whether exothermic or endothermic. […] The endothermic character is associated with a change of state of the compound (ex. vaporization) whereas the exothermic character is induced by reactions of decomposition or by intra- and intermolecular chemical reactions. The thermogravimetric analyzer […] of TA INSTRUMENT was used to conjointly determine the vaporization temperatures of the products, the enthalpy values and the rate of products not vaporized at 350° C. The analysis conditions are as follows: test size: 50 mg open crucible under flow of air: 100 ml/min rate of heating: 10° C./min temperature range: 25 to 350° C. (temperature conditions representative of a normal use as well as of misuse of an electronic cigarette). The apparatus is cleaned between each analysis by being heated to 600° C. under a flow of air in order to eliminate any trace of non-vaporized residue deposited on the crucible, the balance arms or the kiln walls.

Structure (SMILES)	TDA vaporization temperature (° C.) (1) [°C]	TGA non-evaporated residue at 250° C. (%)	TDA vaporization temperature (° C.) (1) (endothermic peak, 50 mg, air 100 ml/min, 10° C./min, 25 to 350° C.) [°C]	TDA transformation temperature (° C.) (2) (exothermic peak (reaction and/or decomposition), 50 mg, air 100 ml/min, 10° C./min)
CN1CCCC1c1cccnc1 (stereo not shown) [Nicotine]	190	1.08	–	–
CC(O)CCO (stereo not shown) [1,3-butane diol]	–	–	171	without any thermal decomposition
